The series is described as follows: Solid state stability of the drug substance (HPLC assay for final content and degradation products). The class given is physicochemical. To be noted: 1 month, product of Example 1. On the procedure:
The solid state stability of the drug substance was determined by storing approximately 1.0 g of the material in a glass bottle at i) 40° C./75% Relative Humidity (RH), open exposure, for 1 month and b) at 50° C., closed, for 1 month. The material was assayed by HPLC for final content and degradation products in both cases.

Where [1] appears, read: 40° C./75% Relative Humidity (RH), open exposure.

Take `CN(CCOc1ccc(CC2SC(=O)NC2=O)cc1)c1ccccn1.O=C(O)C(O)C(O)C(=O)O` (racemic) [DL-Tartrate, 5-[4-[2-(N-methyl-N-(2-pyridyl)amino)ethoxy]benzyl]thiazolidine-2,4-dione DL tartrate]: under setting [1], the “Solid state stability: HPLC assay” value worked out at 97 % initial and the “Solid state stability: degradation observed” value was “No significant degradation observed”. Further, for the setting “50° C., closed”, the “Solid state stability: HPLC assay” value worked out at 99 % initial and the “Solid state stability: degradation observed” value is “No significant degradation observed”.

Values taken from patent publication US20040014790A1, “Tartrate salt of thiazolidinedione derivative” (priority 2000, published 2004).
